Test results as given in the NIST ThermoML archive (doi:10.1016/j.jct.2015.09.016).
Numbers after ± are expanded uncertainties.

Legend:
[1] = 101.33 kPa, Liquid; for electrical conductivity: Alternating current cell with electrodes; for viscosity: Falling or rolling sphere viscometry; for speed of sound: Sing-around technique in a fixed-path interferometer; for mass density: Vibrating tube method
[2] = refractive index (Na D-line) (dimensionless); details: 303.15 K; 101.33 kPa; Liquid; Standard Abbe refractometry
[3] = wn = mass fraction of the nth substance listed; details: 303.15 K, 100 kPa, Liquid; for electrical conductivity: Alternating current cell with electrodes; for viscosity: Falling or rolling sphere viscometry; for speed of sound: Frequency=3 MHz, Sing-around technique in a fixed-path interferometer; for mass density: Vibrating tube method

In the case of `CCCC[NH2+]CCO.O=[N+]([O-])[O-]` [N-(2-hydroxyethyl)butan-1-aminium nitrate], the electrical conductivity ([1]; 303.15 K) is reported as 0.0583 ± 0.0023 S/m, the viscosity ([1]; 303.15 K) is reported as 272.1 ± 16 mPa·s and the speed of sound ([1]; 303.15 K) is reported as 1608.3 ± 5.1 m/s. The mass density ([1]; 303.15 K) was 1114.69 ± 6.4 kg/m3, the electrical conductivity ([1]; 308.15 K) was 0.0701 ± 0.0028 S/m and the viscosity ([1]; 308.15 K) was 202.9 ± 10 mPa·s. It also gave a speed of sound ([1]; 308.15 K) of 1595.7 ± 5.1 m/s, a mass density ([1]; 308.15 K) of 1111.58 ± 6.4 kg/m3 and an electrical conductivity ([1]; 313.15 K) of 0.085 ± 0.0034 S/m. It also gave a viscosity ([1]; 313.15 K) of 154 ± 6.6 mPa·s, a speed of sound ([1]; 313.15 K) of 1583.5 ± 5 m/s and a mass density ([1]; 313.15 K) of 1108.47 ± 6.4 kg/m3. It also gave an electrical conductivity ([1]; 318.15 K) of 0.0982 ± 0.0039 S/m, a viscosity ([1]; 318.15 K) of 119.2 ± 4.8 mPa·s and a speed of sound ([1]; 318.15 K) of 1571.5 ± 5 m/s. For the same molecule, the mass density ([1]; 318.15 K) was 1105.35 ± 6.4 kg/m3, the electrical conductivity ([1]; 323.15 K) was 0.115 ± 0.0046 S/m and the viscosity ([1]; 323.15 K) was 93.3 ± 3.9 mPa·s. The speed of sound ([1]; 323.15 K) was 1559.7 ± 5 m/s, the mass density ([1]; 323.15 K) was 1102.25 ± 6.4 kg/m3 and the electrical conductivity ([1]; 328.15 K) was 0.136 ± 0.0054 S/m. For the same molecule, the viscosity ([1]; 328.15 K) was 74.1 ± 3.5 mPa·s, the speed of sound ([1]; 328.15 K) was 1548.1 ± 5 m/s and the mass density ([1]; 328.15 K) was 1099.15 ± 6.4 kg/m3. It also gave an electrical conductivity ([1]; 333.15 K) of 0.16 ± 0.0064 S/m, a viscosity ([1]; 333.15 K) of 59.6 ± 3.3 mPa·s and a speed of sound ([1]; 333.15 K) of 1536.7 ± 5 m/s. For the same molecule, the mass density ([1]; 333.15 K) was 1096.07 ± 6.4 kg/m3, the electrical conductivity ([1]; 338.15 K) was 0.182 ± 0.0073 S/m and the viscosity ([1]; 338.15 K) was 48.8 ± 3.3 mPa·s. For the same molecule, the speed of sound ([1]; 338.15 K) was 1525.4 ± 5 m/s, the mass density ([1]; 338.15 K) was 1093 ± 6.3 kg/m3 and the electrical conductivity ([1]; 343.15 K) was 0.2 ± 0.008 S/m. It also gave a viscosity ([1]; 343.15 K) of 40.6 ± 3.3 mPa·s, a speed of sound ([1]; 343.15 K) of 1514.3 ± 5 m/s and a mass density ([1]; 343.15 K) of 1089.95 ± 6.3 kg/m3. For the same molecule, the refractive index [2] was 1.4675 ± 0.0012.

Work on `CCCC[NH2+]CCO.O=[N+]([O-])[O-]` [N-(2-hydroxyethyl)butan-1-aminium nitrate] + O yielded an electrical conductivity ([3]; w2 = 0.002318) of 0.0583 ± 0.0023 S/m, an electrical conductivity ([3]; w2 = 0.003573) of 0.0585 ± 0.0023 S/m and an electrical conductivity ([3]; w2 = 0.004837) of 0.0587 ± 0.0023 S/m. For the same molecule, the electrical conductivity ([3]; w2 = 0.006108) was 0.0589 ± 0.0024 S/m, the electrical conductivity ([3]; w2 = 0.007452) was 0.0591 ± 0.0024 S/m and the viscosity ([3]; w2 = 0.002318) was 272.1 ± 16 mPa·s. The viscosity ([3]; w2 = 0.003967) was 271.5 ± 16 mPa·s, the viscosity ([3]; w2 = 0.005068) was 271.1 ± 16 mPa·s and the viscosity ([3]; w2 = 0.006904) was 270.5 ± 16 mPa·s. It also gave a viscosity ([3]; w2 = 0.008717) of 269.8 ± 16 mPa·s, a speed of sound ([3]; w2 = 0.002318) of 1608.3 ± 5 m/s and a speed of sound ([3]; w2 = 0.003967) of 1608.7 ± 5 m/s. The speed of sound ([3]; w2 = 0.005068) was 1609 ± 5 m/s, the speed of sound ([3]; w2 = 0.006904) was 1609.4 ± 5 m/s and the speed of sound ([3]; w2 = 0.008717) was 1609.8 ± 5 m/s. For the same molecule, the mass density ([3]; w2 = 0.002318) was 1114.69 ± 6.4 kg/m3, the mass density ([3]; w2 = 0.003967) was 1114.88 ± 6.4 kg/m3 and the mass density ([3]; w2 = 0.005068) was 1115.01 ± 6.4 kg/m3. It also gave a mass density ([3]; w2 = 0.006904) of 1115.21 ± 6.4 kg/m3 and a mass density ([3]; w2 = 0.008717) of 1115.39 ± 6.4 kg/m3.

With `CCCC[NH2+]CCO.O=C([O-])C(F)(F)F` [N-(2-hydroxyethyl)butan-1-aminium 2,2,2-trifluoroacetate] the electrical conductivity ([1]; 303.15 K) was 0.0391 ± 0.0016 S/m, the viscosity ([1]; 303.15 K) was 211.7 ± 11 mPa·s and the speed of sound ([1]; 303.15 K) was 1282.6 ± 5 m/s. The mass density ([1]; 303.15 K) was 1203.34 ± 6.5 kg/m3, the electrical conductivity ([1]; 308.15 K) was 0.0494 ± 0.002 S/m and the viscosity ([1]; 308.15 K) was 171.1 ± 7.8 mPa·s. The speed of sound ([1]; 308.15 K) was 1270 ± 5 m/s, the mass density ([1]; 308.15 K) was 1198.07 ± 6.5 kg/m3 and the electrical conductivity ([1]; 313.15 K) was 0.0596 ± 0.0024 S/m. For the same molecule, the viscosity ([1]; 313.15 K) was 135.3 ± 5.6 mPa·s, the speed of sound ([1]; 313.15 K) was 1257.7 ± 5 m/s and the mass density ([1]; 313.15 K) was 1194.18 ± 6.5 kg/m3. The electrical conductivity ([1]; 318.15 K) was 0.0703 ± 0.0028 S/m, the viscosity ([1]; 318.15 K) was 104.6 ± 4.3 mPa·s and the speed of sound ([1]; 318.15 K) was 1245.7 ± 5 m/s. For the same molecule, the mass density ([1]; 318.15 K) was 1190.28 ± 6.5 kg/m3, the electrical conductivity ([1]; 323.15 K) was 0.0811 ± 0.0032 S/m and the viscosity ([1]; 323.15 K) was 81.7 ± 3.6 mPa·s. For the same molecule, the speed of sound ([1]; 323.15 K) was 1233.9 ± 5 m/s, the mass density ([1]; 323.15 K) was 1186.37 ± 6.5 kg/m3 and the electrical conductivity ([1]; 328.15 K) was 0.0916 ± 0.0037 S/m. The viscosity ([1]; 328.15 K) was 64.7 ± 3.4 mPa·s, the speed of sound ([1]; 328.15 K) was 1222.4 ± 5 m/s and the mass density ([1]; 328.15 K) was 1182.48 ± 6.5 kg/m3. The electrical conductivity ([1]; 333.15 K) was 0.103 ± 0.0041 S/m, the viscosity ([1]; 333.15 K) was 52.3 ± 3.3 mPa·s and the speed of sound ([1]; 333.15 K) was 1211 ± 5 m/s. It also gave a mass density ([1]; 333.15 K) of 1178.6 ± 6.5 kg/m3, an electrical conductivity ([1]; 338.15 K) of 0.116 ± 0.0046 S/m and a viscosity ([1]; 338.15 K) of 42.8 ± 3.3 mPa·s. For the same molecule, the speed of sound ([1]; 338.15 K) was 1199.8 ± 5 m/s, the mass density ([1]; 338.15 K) was 1174.73 ± 6.5 kg/m3 and the electrical conductivity ([1]; 343.15 K) was 0.128 ± 0.0051 S/m. It also gave a viscosity ([1]; 343.15 K) of 35.6 ± 3.2 mPa·s, a speed of sound ([1]; 343.15 K) of 1188.7 ± 5 m/s and a mass density ([1]; 343.15 K) of 1170.87 ± 6.5 kg/m3. It also gave a refractive index [2] of 1.4126 ± 0.0012.

`CCCC[NH2+]CCO.O=C([O-])C(F)(F)F` [N-(2-hydroxyethyl)butan-1-aminium 2,2,2-trifluoroacetate] + O showed an electrical conductivity ([3]; w2 = 0.002186) of 0.0391 ± 0.0016 S/m, an electrical conductivity ([3]; w2 = 0.003652) of 0.0393 ± 0.0016 S/m and an electrical conductivity ([3]; w2 = 0.004819) of 0.0394 ± 0.0016 S/m. For the same molecule, the electrical conductivity ([3]; w2 = 0.006342) was 0.0396 ± 0.0016 S/m, the electrical conductivity ([3]; w2 = 0.007483) was 0.0398 ± 0.0016 S/m and the viscosity ([3]; w2 = 0.002186) was 211.7 ± 11 mPa·s. For the same molecule, the viscosity ([3]; w2 = 0.003864) was 211.1 ± 11 mPa·s, the viscosity ([3]; w2 = 0.005373) was 210.4 ± 11 mPa·s and the viscosity ([3]; w2 = 0.006759) was 209.8 ± 11 mPa·s. The viscosity ([3]; w2 = 0.008675) was 209.1 ± 11 mPa·s, the speed of sound ([3]; w2 = 0.002186) was 1282.6 ± 5 m/s and the speed of sound ([3]; w2 = 0.003864) was 1282.9 ± 5 m/s. The speed of sound ([3]; w2 = 0.005373) was 1283.2 ± 5 m/s, the speed of sound ([3]; w2 = 0.006759) was 1283.4 ± 5 m/s and the speed of sound ([3]; w2 = 0.008675) was 1283.7 ± 5 m/s. It also gave a mass density ([3]; w2 = 0.002186) of 1203.34 ± 6.5 kg/m3, a mass density ([3]; w2 = 0.003864) of 1203.51 ± 6.5 kg/m3 and a mass density ([3]; w2 = 0.005373) of 1203.68 ± 6.5 kg/m3. For the same molecule, the mass density ([3]; w2 = 0.006759) was 1203.81 ± 6.5 kg/m3 and the mass density ([3]; w2 = 0.008675) was 1204 ± 6.5 kg/m3.
